Test results: patent publication US20150105252A1, “SUBSTITUTED PYRAZOLES AS HERBICIDES” (E I DU PONT DE NEMOURS AND COMPANY, priority 2013, published 2015)

What was measured:
barnyardgrass [1] = assay: Test A postemergence; assay type: in vivo, Echinochloa crus-galli
Summary of the method: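 Visual injury ratings, 0 = no effect to 100 = complete control, taken about 10 days after treatment against untreated controls. Test chemicals, in a non-phytotoxic surfactant-containing solvent, were sprayed onto soil preemergence or onto one- to two-leaf plants (2–10 cm) postemergence, in loam–sand soil under greenhouse conditions.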

ducksalad = assay: Test B flood; assay type: in vivo, Heteranthera limosa; conditions: 250 g ai/ha, visual rating on 0 to 100 scale (0 no effect, 100 complete control), 13 to 15 days
Summary of the method: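 Flooded-pot test: compound dosed into 3 cm of standing water above soil when plants had two leaves. Visual control ratings (0–100) versus untreated plants after 13–15 d.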

blackgrass = assay: Test C preemergence; assay type: in vivo, Alopecurus myosuroides; conditions: for Plant response rating (scale of 0 to 100), Blackgrass: Preemergence, 250 g ai/ha
Summary of the method: (§1)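 Postemergence values come from plants sprayed at the 1- to 4-leaf stage (2–18 cm) in peat moss–vermiculite medium; preemergence values from seeds treated in a loam–sand blend. Both evaluated visually against controls after 13–15 greenhouse days, scale 0–100.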

johnsongrass = assay: Test C preemergence; assay type: in vivo, Sorghum halepense; conditions: for Plant response rating (scale of 0 to 100), Johnsongrass: Preemergence, 250 g ai/ha
Summary of the method: as §1

lambsquarters = assay: Test C preemergence; assay type: in vivo, Chenopodium album; conditions: for Plant response rating (scale of 0 to 100), Lambsquarters: Preemergence, 250 g ai/ha
Summary of the method: as §1

soybean = assay: Test C preemergence; assay type: in vivo, Glycine max; conditions: for Plant response rating (scale of 0 to 100), Soybean: Preemergence, 250 g ai/ha
Summary of the method: as §1

barnyardgrass [2] = assay: Test C preemergence; assay type: in vivo, Echinochloa crus-galli; conditions: for Plant response rating (scale of 0 to 100), Barnyardgrass: Preemergence, 250 g ai/ha
Summary of the method: as §1

ryegrass, Italian = assay: Test C postemergence; assay type: in vivo, Lolium multiflorum; conditions: for Plant response rating (scale of 0 to 100 where 0 is no effect and 100 is complete control), Ryegrass, Italian: Postemergence, 31 g ai/ha, visually evaluated after 13 to 15 days; for Ryegrass, Italian plant response rating / Plant response rating, Ryegrass, Italian: postemergence; for Ryegrass, Italian plant response rating: 62 g ai/ha, scale 0 to 100
Summary of the method: as §1

corn = assay: Test C postemergence; assay type: in vivo, Zea mays; conditions: for Plant response rating (scale of 0 to 100 where 0 is no effect and 100 is complete control), Corn: Postemergence, 31 g ai/ha, visually evaluated after 13 to 15 days; for Corn plant response rating / Plant response rating, Corn: postemergence; for Corn plant response rating: 62 g ai/ha, scale 0 to 100
Summary of the method: as §1

crabgrass, large = assay: Test C postemergence; assay type: in vivo, Digitaria sanguinalis; conditions: for Plant response rating (scale of 0 to 100 where 0 is no effect and 100 is complete control), Crabgrass, Large: Postemergence, 31 g ai/ha, visually evaluated after 13 to 15 days; for Crabgrass, Large plant response rating / Plant response rating, Crabgrass, Large: postemergence; for Crabgrass, Large plant response rating: 62 g ai/ha, scale 0 to 100
Summary of the method: as §1

pigweed = assay: Test C postemergence; assay type: in vivo, Amaranthus retroflexus; conditions: for Plant response rating (scale of 0 to 100 where 0 is no effect and 100 is complete control), Pigweed: Postemergence, 31 g ai/ha, visually evaluated after 13 to 15 days; for Pigweed plant response rating / Plant response rating, Pigweed: postemergence; for Pigweed plant response rating: 62 g ai/ha, scale 0 to 100
Summary of the method: as §1

chickweed = assay: Test C postemergence; assay type: in vivo, Stellaria media; conditions: for Plant response rating (scale of 0 to 100 where 0 is no effect and 100 is complete control), Chickweed: Postemergence, 31 g ai/ha, visually evaluated after 13 to 15 days; for Chickweed plant response rating / Plant response rating, Chickweed: postemergence; for Chickweed plant response rating: 62 g ai/ha, scale 0 to 100
Summary of the method: as §1

[3] = Postemergence, 500 g ai/ha, 0 to 100 scale (0 no effect, 100 complete control)
[4] = postemergence, 125 g ai/ha, about 10 days, visual rating on 0 to 100 scale (0 no effect, 100 complete control)
[5] = preemergence, 31 g ai/ha, visual rating, scale 0 to 100 (0 no effect, 100 complete control), 13 to 15 days
[6] = preemergence, 62 g ai/ha, scale 0 to 100 (0 no effect, 100 complete control), 13 to 15 days
[7] = preemergence, 125 g ai/ha, 13 to 15 days, scale 0 to 100, 0 = no effect, 100 = complete control
[8] = preemergence, 31 g ai/ha, scale 0 to 100 (0 no effect, 100 complete control), 13 to 15 days
[9] = 250 g ai/ha, scale 0 to 100 (0 no effect, 100 complete control)
[10] = 125 g ai/ha, scale 0 to 100, 0 no effect, 100 complete control
[11] = preemergence, 125 g ai/ha, scale 0 to 100, 0 is no effect, 100 is complete control

## CCCc1cc(C(=O)NCC(F)(F)F)nn1Cc1ccnc(OC(F)F)c1 [Compound 127]
Barnyardgrass [1]; [3]
  Barnyardgrass plant response rating: 90
Barnyardgrass [1]; [4]
  Barnyardgrass plant response rating: 90
ducksalad
  Plant response rating, Ducksalad: 95
blackgrass
  Plant response rating (scale of 0 to 100), Blackgrass: 85
blackgrass; [5]
  Blackgrass plant response rating: 20
blackgrass; [6]
  Blackgrass plant response rating: 60
blackgrass; [7]
  Plant response rating, Blackgrass: 60
johnsongrass
  Plant response rating (scale of 0 to 100), Johnsongrass: 90
johnsongrass; [5]
  Johnsongrass plant response rating: 55
johnsongrass; [6]
  Johnsongrass plant response rating: 55
johnsongrass; [7]
  Plant response rating, Johnsongrass: 80
lambsquarters
  Plant response rating (scale of 0 to 100), Lambsquarters: 100
lambsquarters; [5]
  Lambsquarters plant response rating: 100
lambsquarters; [6]
  Lambsquarters plant response rating: 80
lambsquarters; [7]
  Plant response rating, Lambsquarters: 90
soybean
  Plant response rating (scale of 0 to 100), Soybean: 85
soybean; [5]
  Soybean plant response rating: 30
soybean; [6]
  Soybean plant response rating: 45
soybean; [7]
  Plant response rating, Soybean: 65
Barnyardgrass [2]
  Plant response rating (scale of 0 to 100), Barnyardgrass: 95
Barnyardgrass [2]; [8]
  Barnyardgrass plant response rating: 45
Barnyardgrass [2]; [6]
  Barnyardgrass plant response rating: 60
Barnyardgrass [2]; [7]
  Plant response rating, Barnyardgrass: 95
ryegrass, Italian
  Plant response rating (scale of 0 to 100 where 0 is no effect and 100 is complete control), Ryegrass, Italian: 5
  Ryegrass, Italian plant response rating: 5
ryegrass, Italian; [9]
  Plant response rating, Ryegrass, Italian: 40
ryegrass, Italian; [10]
  Plant response rating, Ryegrass, Italian: 10
corn
  Plant response rating (scale of 0 to 100 where 0 is no effect and 100 is complete control), Corn: 5
  Corn plant response rating: 5
corn; [9]
  Plant response rating, Corn: 25
corn; [10]
  Plant response rating, Corn: 10
crabgrass, large
  Plant response rating (scale of 0 to 100 where 0 is no effect and 100 is complete control), Crabgrass, Large: 10
  Crabgrass, Large plant response rating: 10
crabgrass, large; [9]
  Plant response rating, Crabgrass, Large: 55
crabgrass, large; [10]
  Plant response rating, Crabgrass, Large: 20
pigweed
  Plant response rating (scale of 0 to 100 where 0 is no effect and 100 is complete control), Pigweed: 35
  Pigweed plant response rating: 70
pigweed; [9]
  Plant response rating, Pigweed: 85
pigweed; [10]
  Plant response rating, Pigweed: 75
chickweed
  Plant response rating (scale of 0 to 100 where 0 is no effect and 100 is complete control), Chickweed: 75
  Chickweed plant response rating: 80
chickweed; [9]
  Plant response rating, Chickweed: 80
chickweed; [10]
  Plant response rating, Chickweed: 80

## CCc1cc(C(=O)NOC(C)C)nn1Cc1ccnc(OC(F)F)c1 [Compound 126]
Barnyardgrass [1]; [3]
  Barnyardgrass plant response rating: 100
Barnyardgrass [1]; [4]
  Barnyardgrass plant response rating: 90
ducksalad
  Plant response rating, Ducksalad: 95
blackgrass
  Plant response rating (scale of 0 to 100), Blackgrass: 90
blackgrass; [5]
  Blackgrass plant response rating: 55
blackgrass; [6]
  Blackgrass plant response rating: 60
blackgrass; [11]
  Blackgrass plant response rating: 90
johnsongrass
  Plant response rating (scale of 0 to 100), Johnsongrass: 98
johnsongrass; [5]
  Johnsongrass plant response rating: 40
johnsongrass; [6]
  Johnsongrass plant response rating: 85
johnsongrass; [11]
  Johnsongrass plant response rating: 95
lambsquarters
  Plant response rating (scale of 0 to 100), Lambsquarters: 100
lambsquarters; [5]
  Lambsquarters plant response rating: 85
lambsquarters; [6]
  Lambsquarters plant response rating: 98
lambsquarters; [11]
  Lambsquarters plant response rating: 100
soybean
  Plant response rating (scale of 0 to 100), Soybean: 98
soybean; [5]
  Soybean plant response rating: 25
soybean; [6]
  Soybean plant response rating: 40
soybean; [11]
  Soybean plant response rating: 75
Barnyardgrass [2]
  Plant response rating (scale of 0 to 100), Barnyardgrass: 100
Barnyardgrass [2]; [8]
  Barnyardgrass plant response rating: 75
Barnyardgrass [2]; [6]
  Barnyardgrass plant response rating: 100
Barnyardgrass [2]; [11]
  Barnyardgrass plant response rating: 100
ryegrass, Italian
  Plant response rating (scale of 0 to 100 where 0 is no effect and 100 is complete control), Ryegrass, Italian: 5
  Ryegrass, Italian plant response rating: 5
ryegrass, Italian; [9]
  Plant response rating, Ryegrass, Italian: 15
ryegrass, Italian; [10]
  Plant response rating, Ryegrass, Italian: 10
corn
  Plant response rating (scale of 0 to 100 where 0 is no effect and 100 is complete control), Corn: 5
  Corn plant response rating: 10
corn; [9]
  Plant response rating, Corn: 55
corn; [10]
  Plant response rating, Corn: 35
crabgrass, large
  Plant response rating (scale of 0 to 100 where 0 is no effect and 100 is complete control), Crabgrass, Large: 5
  Crabgrass, Large plant response rating: 10
crabgrass, large; [9]
  Plant response rating, Crabgrass, Large: 60
crabgrass, large; [10]
  Plant response rating, Crabgrass, Large: 15
pigweed
  Plant response rating (scale of 0 to 100 where 0 is no effect and 100 is complete control), Pigweed: 25
  Pigweed plant response rating: 50
pigweed; [9]
  Plant response rating, Pigweed: 65
pigweed; [10]
  Plant response rating, Pigweed: 40
chickweed
  Plant response rating (scale of 0 to 100 where 0 is no effect and 100 is complete control), Chickweed: 60
  Chickweed plant response rating: 70
chickweed; [9]
  Plant response rating, Chickweed: 85
chickweed; [10]
  Plant response rating, Chickweed: 80
